In patent US20220251036A1, “DIFLUOROHALOALLYLAMINE SULFONE DERIVATIVE INHIBITORS OF LYSYL OXIDASES, METHODS OF PREPARATION, AND USES THEREOF” (PHARMAXIS LTD., priority 2019, published 2022):

Legend:
[1] = target: T1, Human recombinant SSAO/VAP-1 (Homo sapiens, UniProt Q16853); experiment: SSAO/VAP-1 inhibition; format: biochemical; settings: 30 min incubation at 37° C, benzylamine 600 μM
T1 construct: residues 34-763 of human SSAO/VAP-1; TEV cleavage site (N); made in house
T1 sequence (Q16853 34-763): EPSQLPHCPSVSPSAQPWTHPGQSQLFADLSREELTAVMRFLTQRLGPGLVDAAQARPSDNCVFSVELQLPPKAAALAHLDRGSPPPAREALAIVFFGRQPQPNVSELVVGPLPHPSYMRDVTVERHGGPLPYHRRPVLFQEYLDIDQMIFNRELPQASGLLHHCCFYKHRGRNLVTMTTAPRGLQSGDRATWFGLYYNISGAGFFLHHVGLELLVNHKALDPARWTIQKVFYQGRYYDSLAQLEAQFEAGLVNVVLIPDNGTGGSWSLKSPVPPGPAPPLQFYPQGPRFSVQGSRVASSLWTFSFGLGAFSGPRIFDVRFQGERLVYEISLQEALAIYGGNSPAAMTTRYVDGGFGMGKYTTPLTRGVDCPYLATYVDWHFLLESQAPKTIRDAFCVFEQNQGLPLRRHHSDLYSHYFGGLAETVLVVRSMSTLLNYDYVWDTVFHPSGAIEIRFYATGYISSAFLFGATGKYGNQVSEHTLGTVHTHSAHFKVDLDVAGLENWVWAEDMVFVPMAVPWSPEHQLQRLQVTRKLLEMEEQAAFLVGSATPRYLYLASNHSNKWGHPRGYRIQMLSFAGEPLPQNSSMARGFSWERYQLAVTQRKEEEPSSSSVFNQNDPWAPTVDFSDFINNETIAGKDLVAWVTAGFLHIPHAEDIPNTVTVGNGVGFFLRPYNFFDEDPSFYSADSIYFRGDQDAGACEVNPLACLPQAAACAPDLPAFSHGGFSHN
Procedure: Human recombinant SSAO/VAP-1 amine oxidase activity was determined using the coupled colorimetric method as described for monoamine oxidase, copper-containing amine oxidases and related enzymes (Holt A. and Palcic M., A peroxidase-coupled continuous absorbance plate-reader assay for flavin monoamine oxidases, copper-containing amine oxidases and related enzymes. Nat Protoc 2006; 1: 2498-2505). Briefly, a cloned cDNA template corresponding to residues 34-763 of human SSAO/VAP-1, and incorporating a mouse Ig kappa (κ) signal sequence, N-terminal flag epitope tag and tobacco etch virus (TEV) cleavage site, was assembled in a mammalian expression vector (pLO-CMV) by Geneart AG. This vector containing human SSAO/VAP-1 residues was transfected into CHO-K1 glycosylation mutant cell line, Lee 8. A clone stably expressing human SSAO/VAP-1 was isolated and cultured in large scale. Active human SSAO/VAP-1 was purified and recovered using immunoaffinity chromatography. This was used as the source for SSAO/VAP-1 activity. A high-throughput fluorescent assay was developed using either 96 or 384 well format. Briefly, in a standard 96 well plate assay 50 μL of purified human SSAO/VAP-1 (0.25 μg/mL) in 0.1 M sodium phophate buffer (pH 7.4) was added into each well. Test compounds were dissolved in DMSO and tested in a Concentration Response Curve (CRC) with 4-11 data points, typically in the micromolar or nanomolar range after incubation with human SSAO/VAP-1 for 30 min at 37° C. After 30 min incubation, 50 μL of the reaction mixture containing 600 μM benzylamine (Sigma Aldrich), 120 μM Amplex Red (Sigma Aldrich) and 1.5 U/mL horseradish peroxidase (Sigma Aldrich) prepared in 0.1 M sodium phosphate buffer (pH 7.4) were added to the corresponding well. The fluorescence unit (RFU) was read every 2.5 min for 30 min at 37° C. excitation 565 nm and emission 590 (Optima; BMG labtech). The slope of the kinetics for each well was calculated using MARS data analysis software (BMG labtech) and this value was used to deduce the IC50 value (Dotmatics).

[2] = target: T2, recombinant human MAO-B (Homo sapiens, UniProt P27338); experiment: MAO-B inhibition; format: biochemical; settings: benzylamine 100 μM
T2 construct: purchased Sigma Aldrich
T2 sequence (P27338 1-520): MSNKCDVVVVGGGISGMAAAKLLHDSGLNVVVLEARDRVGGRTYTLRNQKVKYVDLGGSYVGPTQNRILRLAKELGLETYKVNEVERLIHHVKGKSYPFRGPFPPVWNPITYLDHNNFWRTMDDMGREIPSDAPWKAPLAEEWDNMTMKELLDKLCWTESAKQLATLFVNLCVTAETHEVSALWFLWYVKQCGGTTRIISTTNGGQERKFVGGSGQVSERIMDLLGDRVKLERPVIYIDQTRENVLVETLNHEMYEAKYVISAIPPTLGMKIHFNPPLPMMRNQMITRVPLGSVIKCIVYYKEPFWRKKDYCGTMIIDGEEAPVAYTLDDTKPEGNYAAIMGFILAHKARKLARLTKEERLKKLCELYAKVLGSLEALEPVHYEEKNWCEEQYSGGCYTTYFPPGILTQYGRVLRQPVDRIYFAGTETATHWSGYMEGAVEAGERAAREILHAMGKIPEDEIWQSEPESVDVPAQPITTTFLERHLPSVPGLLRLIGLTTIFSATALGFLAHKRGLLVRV
Procedure: The specificity of the compounds of this invention was tested by determining their ability to inhibit MAO-B activity in vitro using recombinant human MAO-B (0.02 mg/mL; Sigma Aldrich). The assay was performed in a similar way as for human SSAO/VAP-1 (Example 8) except, the substrate benzylamine was used at 100 μM.

SMILES | IC50 [1] | IC50 [2]
Cc1ccc(S(=O)(=O)C(F)(F)/C(F)=C/CN)cc1 [Compound 6, (Z)-3,4,4-trifluoro-4-tosylbut-2-en-1-amine] | > 30 µM | > 30 µM
NC/C=C(\F)C(F)(F)S(=O)(=O)Cc1ccccc1 [Compound 8, (Z)-4-(benzylsulfony1)-3,4,4-trifluorobut-2-en-1-amine] | > 30 µM | > 30 µM
CS(=O)(=O)c1ccc(COc2ccccc2S(=O)(=O)C(F)(F)/C(F)=C/CN)cc1 [Compound 10, (Z)-3,4,4-trifluoro-4-((2-((4-(methylsulfonyl)benzyl)oxy)phenyl)sulfonyl) but-2-en-1-amine] | 14.7 µM | > 30 µM
Cc1ccccc1S(=O)(=O)C(F)(F)/C(F)=C/CN [Compound 5, (Z)-3,4,4-trifluoro-4-(o-tolylsulfonyl)but-2-en-1-amine] | > 30 µM | > 30 µM
N#CCCN [BAPN, β-aminopropionitrile, reference compound] | > 30 µM | > 30 µM

The remaining compounds from weak to strong by IC50 [1], led by results:

IC50 [1] | IC50 [2] | SMILES
26.6 µM |  | NC/C=C(\F)C(F)(F)S(=O)(=O)c1cccs1 [Compound 14, (Z)-3,4,4-trifluoro-4-(thiophen-2-ylsulfonyl)but-2-en-1-amine]
18 µM | ≥ 30 µM | CNc1ccccc1S(=O)(=O)C(F)(F)/C(F)=C/CN [Compound 4, (Z)-2-((4-amino-1,1,2-trifluorobut-2-en-yl)sulfony1)-N-methylaniline]
